Test results taken from patent publication US12616697B2, “Methods of treatment with myosin modulator” (MyoKardia, Inc., priority 2020, dated 2026).
Blank lines part the entries; values can stand above or below the compound they belong to.

Tests used:
[1] = tested on: Yucatan mini-pigs with a heterozygous MYH7 R403Q mutation; assay: Chronic MYK-581 in mini-pig genetic model of non-obstructed HCM (cMR imaging, invasive hemodynamics, dobutamine challenge); type: in vivo
Method: The mini-pigs were treated for at least 12 weeks and were evaluated as shown in Schematic 1 below. […] After ˜14 weeks of treatment, all pigs underwent in vivo cMR imaging for the assessment of LV function and geometry, as well as of myocardial composition via of Late Gadolinium Enhancement (LGE) and T1 mapping techniques including extracellular volume (ECV) assessments. In addition, a subset of animals (MYK: n=6, CTRL: n=5) also underwent terminal invasive hemodynamics assessments, including cardiac output (CO, via thermodilution), load-independent systolic/diastolic function (via LV pressure-volume relationships), and β-adrenergic (β-AR) cardiac reserve (via dobutamine at 5 ug/kg/min IV).
The mini-pig model can be obtained following the method disclosed in a presentation entitled “A Minipig Genetic Model of Hypertrophic Cardiomyopathy Uncovers the Pathophysiological Mechanisms of Disease Evolution”, by E. Green et al., at University of Iowa, Carver College of Medicine.

[2] = target: T1, bovine cardiac synthetic myosin filaments (Bos taurus, UniProt Q9BE39); assay: DRX/SRX ATPase rate and SRX population in cardiac synthetic myosin filaments; type: biochemical; conditions: over a range of concentrations; the two compounds compared
T1 construct: bovine cardiac synthetic myosin filaments; from tissue; host or cells: bovine heart (inferred from 'bovine cardiac'; the preparation is not described)

[3] = tested on: conscious fully-instrumented dogs with normal cardiac function; assay: Cardiac reserve under acute β-AR (dobutamine) challenges in conscious instrumented dogs; type: in vivo, dog; conditions: before and under acute mavacamten treatment
Method: In addition, the effects of MAVA (at 1.5 mg/kg PO, via gavage) on cardiac reserve were evaluated via acute β-AR challenges (dobutamime: 2, 5, and 10 ug/kg/min IV) in conscious fully-instrumented (LVPV group) dogs with normal cardiac function (n=8). These challenges were performed before/after dosing (+3-hour) in control- and MAVA-treated animals both under normal cardiac physiological conditions (n=4) and under (mild) concomitant cardio-depression induced via either selective β-AR blockade (+BB, metoprolol 0.5±0.1 mg/kg PO tid; n=4) or L-type Ca2+-channel blockade (+CCB, verapamil at 5±1 mg/kg PO tid; n=4); pharmacological blockades were established for 7 days prior to the MAVA treatment. Both peak and dose-responses were evaluated at steady state.
Throughout these experiments, analog signals were digitally acquired (1000 Hz) and recorded continuously with a data acquisition/analysis system (IOX; EMKA Technologies). Heart rate (HR), end-systolic (ESP) and end-diastolic pressures (EDP), as well as the peak rates of pressure rise/decline (dP/dtmax and dP/dtmin), the contractility index (CI: dP/dt/P at dP/dtmax), and the time-constant of myocardial relaxation (tau1/2, time for 50% decay from dP/dtmin) were derived from the LV pressure signal. Meanwhile, the end-systolic (ESV) and end-diastolic volumes (EDV) were measured from the LV volume signal derived from the implanted myocardial crystals. LV volumes were derived assuming a Teichholz model, and stroke volume (SV=EDV−ESV), ejection fraction (EF=SV/EDV), as well as cardiac output (CO=SV·HR) were calculated; in a subset of animals, SV and CO values were verified from data derived from the implanted aortic flow […]. […] The slopes of the preload-recruitable stroke work (PRSW; stroke work vs. EDV) and the end-systolic pressure-volume relationships (ESPVR; end-systolic elastance, Ees) were derived by software using linear models (IOX; EMKA Technologies), and were used as load-independent inotropic indices. Ventricular load was estimated by the effective arterial elastance (Ea=ESP/SV). […]

anaesthetized rats = assay: Counteraction of mavacamten effects in anaesthetized rats in vivo; parameters: species or system rat
Source text: (§1) Additional supportive measures, e.g., intravenous volume supplementation and/or the use of arterial vasoconstrictor agents (a adrenergic agonists) may complement the use of a β adrenergic agonist.

[4] = tested on: conscious Sprague-Dawley rats; assay: Mavacamten-induced cardio-depression with positive inotropic challenges, echocardiography; type: in vivo, rat; conditions: inotropic challenge 3 hrs after MAVA 4 mg/kg PO
Method: Methods: The responsiveness of mavacamten-induced cardio-depression to positive inotropic challenges was assessed in a set of conscious Sprague-Dawley rats. In these animals, functional reserve was assessed via either dobutamine (+DOB, 10 ug/kg/min IV for 10 min, n=7) or levosimendan (+LEVO, 0.3 μmol/kg IV over […]; n=6) challenges given 3 hrs following a single-dose administration of MAVA (at 4 mg/kg, PO). Cardiac function/geometry were recorded and compared at three separate time-points/days: prior to dosing (i.e., at baseline) and at 3 hrs post-dosing both before as well as during the inotropic challenge; in order to account for the levosimendan-induced changes in loading conditions, an additional echocardiographic examination was performed following acute preload-restoration in LEVO-treated rats (+LEVO/F, 0.9% NaCl at 30 mL/kg/hr IV).
In these experiments, left-ventricular fractional shortening (FS), an index of systolic performance, as well as LV dimensions/volumes and heart rates were measured using a high-frequency transducer and parasternal long-axis transthoracic views (Vevo2100, VisualSonic). FS was defined as the end-diastole normalized change in internal dimensions/diameter of the left ventricle between end-systole (LVESd) and end-diastole (LVEDd) (i.e., FS=100·[LVEDd−LVESd]/LVEDd). LV volumes were derived assuming a Teichholz model (LVV=7·[2.4+LVid]−1·LVid3).

[5] = tested on: isolated adult rat ventricular myocytes; assay: Counteraction of mavacamten effects in isolated myocytes in vitro; type: cell-based
Source text: as §1

T1 sequence (Q9BE39 whole entry): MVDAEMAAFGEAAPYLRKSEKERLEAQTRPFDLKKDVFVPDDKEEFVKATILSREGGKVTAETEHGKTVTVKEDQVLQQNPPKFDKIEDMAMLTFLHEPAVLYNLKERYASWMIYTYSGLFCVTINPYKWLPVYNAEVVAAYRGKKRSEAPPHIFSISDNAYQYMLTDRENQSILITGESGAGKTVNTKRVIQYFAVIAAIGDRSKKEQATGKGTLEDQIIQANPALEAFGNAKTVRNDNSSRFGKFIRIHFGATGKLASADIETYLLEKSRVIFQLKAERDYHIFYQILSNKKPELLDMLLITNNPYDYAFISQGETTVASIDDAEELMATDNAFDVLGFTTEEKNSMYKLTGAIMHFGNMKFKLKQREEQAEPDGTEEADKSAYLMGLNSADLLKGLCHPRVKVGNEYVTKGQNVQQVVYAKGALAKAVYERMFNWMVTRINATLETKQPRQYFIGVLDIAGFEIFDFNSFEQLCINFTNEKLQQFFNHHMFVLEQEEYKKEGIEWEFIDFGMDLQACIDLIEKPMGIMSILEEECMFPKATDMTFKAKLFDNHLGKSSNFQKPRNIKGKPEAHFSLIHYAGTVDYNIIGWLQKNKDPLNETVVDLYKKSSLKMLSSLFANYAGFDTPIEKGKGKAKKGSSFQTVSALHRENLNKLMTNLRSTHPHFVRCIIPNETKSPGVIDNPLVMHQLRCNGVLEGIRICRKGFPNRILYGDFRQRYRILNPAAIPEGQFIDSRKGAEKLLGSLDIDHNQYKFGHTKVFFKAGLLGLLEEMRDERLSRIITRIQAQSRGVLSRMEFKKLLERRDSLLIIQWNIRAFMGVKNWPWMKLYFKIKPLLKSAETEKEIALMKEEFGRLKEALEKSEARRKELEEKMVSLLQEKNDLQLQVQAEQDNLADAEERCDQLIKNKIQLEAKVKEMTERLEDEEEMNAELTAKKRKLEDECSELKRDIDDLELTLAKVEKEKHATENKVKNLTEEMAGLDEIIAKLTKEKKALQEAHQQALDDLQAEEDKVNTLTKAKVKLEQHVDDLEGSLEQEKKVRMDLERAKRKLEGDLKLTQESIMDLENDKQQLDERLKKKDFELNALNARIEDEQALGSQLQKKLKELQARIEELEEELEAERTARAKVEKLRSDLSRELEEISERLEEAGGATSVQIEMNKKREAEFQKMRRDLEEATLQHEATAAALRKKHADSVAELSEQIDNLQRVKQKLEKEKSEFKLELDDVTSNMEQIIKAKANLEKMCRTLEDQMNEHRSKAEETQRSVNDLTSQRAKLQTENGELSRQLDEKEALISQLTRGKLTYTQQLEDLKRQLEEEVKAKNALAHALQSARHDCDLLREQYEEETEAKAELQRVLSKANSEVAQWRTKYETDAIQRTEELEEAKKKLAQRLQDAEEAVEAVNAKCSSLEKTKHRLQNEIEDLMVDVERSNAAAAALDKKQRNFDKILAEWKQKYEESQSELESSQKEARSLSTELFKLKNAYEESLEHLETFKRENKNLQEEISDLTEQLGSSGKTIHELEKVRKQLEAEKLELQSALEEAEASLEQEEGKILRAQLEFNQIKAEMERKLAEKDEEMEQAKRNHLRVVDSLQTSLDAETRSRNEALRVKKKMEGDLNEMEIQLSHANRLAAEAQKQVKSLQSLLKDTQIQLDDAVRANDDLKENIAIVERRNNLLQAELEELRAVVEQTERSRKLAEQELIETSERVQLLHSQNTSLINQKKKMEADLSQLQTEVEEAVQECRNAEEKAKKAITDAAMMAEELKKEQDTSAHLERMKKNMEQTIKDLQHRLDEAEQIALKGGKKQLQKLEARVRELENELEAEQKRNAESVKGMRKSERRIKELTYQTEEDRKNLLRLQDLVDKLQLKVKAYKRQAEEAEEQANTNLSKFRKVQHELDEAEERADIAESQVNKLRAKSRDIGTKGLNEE
T1 sequence (P85100 whole entry partner): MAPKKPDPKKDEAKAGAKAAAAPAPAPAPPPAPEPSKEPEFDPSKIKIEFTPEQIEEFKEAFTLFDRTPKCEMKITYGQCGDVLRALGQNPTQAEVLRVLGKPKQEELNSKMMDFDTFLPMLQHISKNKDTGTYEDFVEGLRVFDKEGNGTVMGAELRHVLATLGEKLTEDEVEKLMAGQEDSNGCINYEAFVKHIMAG
T1 sequence (Q3SZE5 whole entry partner): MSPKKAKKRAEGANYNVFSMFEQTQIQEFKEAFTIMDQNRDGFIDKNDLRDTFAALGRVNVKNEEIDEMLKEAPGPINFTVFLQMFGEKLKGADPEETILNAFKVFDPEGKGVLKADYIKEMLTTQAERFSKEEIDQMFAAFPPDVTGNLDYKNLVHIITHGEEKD

DRX ATPase rate and SRX ATPase Rate (as a fraction of control) [2]: similar
Compound: CC(C)n1c(=O)cc(N[C@@H](C)c2cccc(F)c2)[nH]c1=O [MYK-581, (S)-6-((1-(3-fluorophenyl)ethyl)amino)-3-isopropylpyrimidine-2,4(1H,3H)-dione]
CO (cardiac output) ([1]; chronic treatment): preserving CO | CO change, β-AR cardiac reserve ([1]; dobutamine challenge, control +26±2): +60±8% | T1-times ([1]; vs control): lower T1-times

Compound: CC(CCc1ccc(O)cc1)NCCc1ccc(O)c(O)c1 (stereo not drawn) [dobutamine]
stroke-volume/cardiac output recruitments [3]: comparable stroke-volume/cardiac output recruitments | pharmacologic effects of mavacamten counteracted (anaesthetized rats): can be counteracted | echocardiography-derived indices of systolic function after mavacamten [4]: successfully rescued/restored

Compound: CC(C)NCC(O)c1ccc(O)c(O)c1 (stereo not drawn) [isoproterenol]
pharmacologic effects of mavacamten counteracted [5]: can be counteracted

Compound: C[C@@H]1CC(=O)NN=C1c1ccc(NN=C(C#N)C#N)cc1 [levosimendan]
echocardiography-derived indices of systolic function after mavacamten [4]: successfully rescued/restored
